The values below are quoted from earlier work in PMC8069832, “New Amides and Phosphoramidates Containing Selenium: Studies on Their Cytotoxicity and Antioxidant Activities in Breast Cancer” (Antioxidants, 2021).

Set-up in all cases: method as in earlier work
One data set deals with PC-3. The following applies: DTP database of the NCI; cited from earlier work.
Another data set has as its system CCRF-CEM. The following applies: DTP database of the NCI; cited from earlier work.
The subject of a further data set is HT-29. The following applies: DTP database of the NCI; cited from earlier work.
Another data set concerns HTB-54. The following applies: DTP database of the NCI, cited from earlier work.
The next data set has as its system MCF-7. The following applies: DTP database of the NCI; cited from earlier work.

Turning to `N.N.[Cl][Pt][Cl]` [Cp, cisplatin], in the data set with PC-3, the GI50 (as a rule, the concentration giving 50% growth inhibition) was 5 µM and the “TGI PC-3” value was 50.1 µM. Also, in the data set with CCRF-CEM, the GI50 is 1 µM and the “TGI CCRF-CEM” value is 79.6 µM. In the data set on HT-29, the 50% growth inhibitory concentration (GI50) was 7.9 µM and the “TGI HT-29” value is >100 µM. Moreover, the “TGI HTB54” value in the data set with HTB-54 was 32.7 µM. In addition, the GI50 in the data set on HTB-54 (read-out: GI50 HTB54) is 9.6 µM. Further, in the data set with MCF-7, the GI50 was 3.2 µM and the “TGI MCF-7” value is given as >100 µM.
